From a melting point compilation (Tetko et al.; mined from patent text by program, amines drawn as free bases though some values may be those of a salt)

First: CCOC(=O)N=NC(=O)OCC
Second: CCOC(=O)C1=C(C)NC(=S)N(C(=O)OCC)C1c1cccc(C#N)c1 (centres undefined)
The melting point of the first is lower: 120 to 121 °C for the first, 155 to 156 °C for the second.

First: O=C(CCO)Cc1cccc(OCc2ccc3ccccc3n2)c1
Second: NC(=O)Nc1ccc(CCOCc2ccccc2-c2ccccc2)cc1
The melting point of the first is lower: 116 to 119 °C for the first, 143 to 144 °C for the second.

First: COc1ccc(N2C(=O)N(c3cccc(C#N)c3)c3nc(Nc4ccccc4)ncc3C2C)cc1 (centres undefined)
Second: COc1ccc(C2Sc3cc(Sc4ccccc4)ccc3NC(=O)C2O)cc1 (centres undefined)
The melting point of the first is higher: 224 to 228 °C for the first, 195 to 198 °C for the second.

First: Cn1c(CNCC(C)(C)C)cc2cc(NC(=O)c3ccc(C#CC4(O)CCC4)cc3)ccc21
Second: CN(Cc1ccc(C(=O)O)cc1)c1ccc2c(c1)C(C)(C)CCC2(C)C
The melting point of the first is higher: 160 to 161 °C for the first, 141 to 144 °C for the second.

First: COc1ccc(CCN(C)c2cc(C)sc2CO)cc1OC
Second: COc1ccc(-c2nc(CN3CCCCC3)nc3cc(OC)c(OC)cc23)cc1OC
The melting point of the first is higher: 149 °C for the first, 130 to 132 °C for the second.

First: O=C(O)c1nn(-c2ccc(F)cc2F)c2c1[C@H]1CC[C@@H]2C1
Second: Cc1c(F)c(N2CCC(N)C2)cc2c1c(=O)c(C(=O)O)cn2C1CC1 (centres undefined)
The melting point of the first is lower: 110 to 112 °C for the first, over 300 °C for the second.

First: CCCNS(=O)(=O)c1cc(C)c2cc(C(C)C)ccc(C)c1-2
Second: Cc1ccc(CC(CNC(=S)NC(C)c2ccc(NS(C)(=O)=O)c(F)c2)COC(=O)C(C)(C)C)cc1C (centres undefined)
The melting point of the first is lower: 60 to 62 °C for the first, 73 °C for the second.

First: Fc1ccc(-c2ncn(C3CCNCC3)c2-c2ccnc(Oc3ccccc3F)n2)cc1
Second: Cc1c(C(=O)c2ccc(F)cc2)n(N2C(=O)c3ccccc3C2=O)c2ccccc12
The melting point of the first is lower: 154 to 155 °C for the first, 227 to 228 °C for the second.

Compared with `CCCC(=O)CC1NC(=O)c2ccsc2-n2cccc21` (centres undefined), `CCn1cc(C(=O)O)c(=O)cc1-c1ccccc1` is lower in melting point: 186 °C for the first, 166 to 167 °C for the second.

Compared with `COc1ccc(CNc2nc(SC)ncc2C(=O)OCc2ccccn2)cc1Cl`, `Fc1cccc(COc2ccc(Nc3ncnc4cc(C#Cc5ccccn5)sc34)cc2Cl)c1` is higher in melting point: 117 to 118 °C for the first, 242 °C for the second.

First: CC(=NOCCOc1ccc(CC2SC(=O)NC2=O)cc1)c1ccc(-c2ccc(C)cc2)cc1 (centres undefined)
Second: CCOC(=O)C(C)(C)Oc1ccc(-c2ccc(CCNC(=O)c3cc(OC)cc(OC)c3)cc2)cc1
The melting point of the first is higher: 184 to 186 °C for the first, 74 °C for the second.

Compared with `COc1ccc(C2Sc3cc(Cl)c(Cl)cc3N(CCN(C)C)C(=O)C2O)cc1` (centres undefined), `COc1ccc2c(c1)C(N)(CCC#N)C(=O)N2c1ccc(F)cc1` (centres undefined) is lower in melting point: 178 to 180 °C for the first, 136 to 138 °C for the second.

First: C#CC1(O)CCC2(C)C(CCC3C4CCC(C(C)=O)C4(C)C=CC32)C1 (centres undefined)
Second: C=C1CC2CC(O)CCC2(C)C2CC(O)C3(C)C(C(C)CCC(=O)O)CCC3C12 (centres undefined)
The melting point of the first is lower: 147 to 150 °C for the first, 199 to 202 °C for the second.

First: O=Cc1cccc2c1nc(-c1c(F)cccc1F)n2Cc1c(F)cccc1F
Second: O=Cc1cc(-c2ccc3nnn(Cc4ccc5ncccc5c4)c3n2)cs1
The melting point of the first is lower: 151 to 153 °C for the first, 195 to 197 °C for the second.

Compared with `O=c1ccn(CCO)c(C(O)c2ccc(Cl)cc2)c1O` (centres undefined), `O=C(c1ccc(Cl)cc1)c1c(Cl)cc(CBr)cc1Cl` is lower in melting point: 184 to 186 °C for the first, 69 to 73 °C for the second.

`OC1(CNCc2ccccc2)CCN(CCCc2c[nH]c3ccc(-n4cnnc4)cc23)C1` (centres undefined) and `Cc1ccc(N2C=NC(=O)C23CCN(Cc2ccccc2)CC3)cc1` cannot be ordered by melting point: over 61 °C for the first, 208 to 213 °C for the second.

First: CCCCCOC(=O)c1ccc(S(N)(=O)=O)cc1
Second: CCCCNC(=O)Oc1ccc(N=C=S)cc1
The melting point of the first is lower: 96 to 98 °C for the first, 99 to 102 °C for the second.

First: COc1ccc(C(=C/C=C/C(=O)Oc2ccc([N+](=O)[O-])cc2)c2ccc(OC)cc2)cc1
Second: COc1ccc(C(C)(C)C)cc1C(=O)c1ccc([N+](=O)[O-])cc1Cl
The melting point of the first is higher: 121 to 123 °C for the first, 82.5 to 83.5 °C for the second.

Compared with `O=[N+]([O-])c1sc(-n2cccc2)nc1Cl`, `O=C/C=C/c1cc2ccccc2s1` is lower in melting point: 138 to 139 °C for the first, 88 °C for the second.

First: CCCCNC(=O)Nc1ccccc1C(=O)NCC1CCN(C(c2ccccc2)c2ccccc2)CC1
Second: Cc1sc(-c2ccncc2)nc1CCOc1ccc(C[C@H](Nc2ccccc2C(=O)c2ccccc2)C(=O)O)cc1
The melting point of the first is higher: 197 to 198 °C for the first, 155 to 158 °C for the second.

Compared with `COc1ccc(N2CCOCC2)c2sc(C(=O)NCc3ccccc3)nc12`, `CC(=O)OC1(Cc2ccncc2)C(=O)N(N2CCOCC2)c2ccccc21` (centres undefined) is higher in melting point: 156 to 158 °C for the first, 178 to 180 °C for the second.

Compared with `Cc1c(Cc2ccccc2)c2c(c(C)c1NC(=O)CC(C)(C)C)C(c1ccc(C(C)C)cc1)CO2` (centres undefined), `CCOC(=O)C1=C(C)NC(C)=C(C#N)C1c1cccc2c1SC(c1ccccc1)=CC2` (centres undefined) is higher in melting point: 153 to 154 °C for the first, 206 to 207 °C for the second.

Compared with `FC(F)(F)c1cc(Cl)c(-n2cnc(I)n2)c(Cl)c1`, `CC1CN2N=C(c3cccc(C(F)(F)F)c3)C=CC2=N1` (centres undefined) is lower in melting point: 130 to 132 °C for the first, 86 to 90 °C for the second.

First: Cn1cc2c(n1)-c1cnn(C)c1CC2
Second: Cn1nc(Br)c2c(=O)n3c(nc21)SCC3
The melting point of the first is lower: 140 to 145 °C for the first, 205 to 206 °C for the second.

Compared with `CC(O)(CF)C(=O)Nc1ccc(S(=O)(=O)c2ccncc2)cc1` (centres undefined), `Cc1cc(C#N)cc(C(=O)Nc2ccc(F)cc2)n1` is lower in melting point: 209 to 211 °C for the first, 189 °C for the second.

Compared with `Cc1nc2cc(Cl)cc(Cl)c2o1`, `Cc1nnc2cc(-c3ccccc3Cl)c3cc(Cl)ccc3n12` is higher in melting point: 110 to 113 °C for the first, 257 to 259 °C for the second.

First: O=C1CCCc2[nH]c3c(F)cccc3c21
Second: CS(=O)(=O)c1ccc(-c2onc3c2-c2ccccc2CC3)cc1
The melting point of the first is higher: 222 to 224 °C for the first, 181 to 182 °C for the second.

First: N#CC(CCCOc1ccccc1)(Cn1cncn1)c1ccccc1 (centres undefined)
Second: NS(=O)(=O)c1ccccc1S(=O)Cc1ccccc1 (centres undefined)
The melting point of the first is lower: 85 to 86 °C for the first, 206 to 209 °C for the second.

Compared with `Cc1cc2cc(CN3CCCC3)cnc2cc1NC(=O)c1ccc(-c2ccc(Cl)cc2)c(F)c1`, `Cc1nc(-c2ccc(-c3ccc(C(=O)Nc4cc(OCCN(C)C)c(I)cc4I)cc3)c(C)c2)no1` is lower in melting point: 181 to 185 °C for the first, 69 to 71 °C for the second.

First: C=C(ON1C(=O)[C@@H](NC(=O)OC(C)(C)C)[C@@H]1C)C(=O)O
Second: CC(C)(C)OC(=O)NC[C@H]1CC[C@H](C#N)CC1
The melting point of the first is higher: 127 to 130 °C for the first, 100 to 101 °C for the second.

First: CCN(CC)c1ccc2c(c1)Cc1c-2[nH]c2ccccc12
Second: CN1CCC(c2nn(C(=O)c3ccc(Cl)c(Cl)c3)c3ccccc23)CC1
The melting point of the first is higher: 204 to 206 °C for the first, 187 to 189 °C for the second.

Compared with `CCSC(c1ccc(Cl)cc1)C(C(=O)C(C)(C)C)n1cncn1` (centres undefined), `CC(c1ccc(Cl)cc1)N1CCNC1=NC(N)=S` (centres undefined) is lower in melting point: 154 °C for the first, 107 °C for the second.

`COC(=O)c1ccc(NC(=O)OCC2c3ccccc3-c3ccccc32)cc1O` and `CCCCC(=O)Nc1ccc(Cl)c(-n2nc(CCCC)c(Cc3ccc(-c4ccccc4S(=O)(=O)NC(=O)c4ccccc4Cl)cc3)c2C(=O)OCC)c1` cannot be ordered by melting point: 156 to 159 °C for the first, over 95 °C for the second.

First: O=C(NCc1ccc(F)cc1)c1ccnc(N2CCN(CC3CC3)C2=O)c1
Second: Cc1ccc(F)cc1C(=O)Nc1ccc(C(=O)N2Cc3ccnn3Cc3ccccc32)cn1
The melting point of the first is lower: 150 to 151 °C for the first, 250 to 260 °C for the second.

Compared with `CCC(CCOc1ccc(-c2ccc(C(=O)O)cc2)cc1-c1ccc2c(c1)C(C)(C)CCC2(C)C)NC1CC1` (centres undefined), `CCC1(CC)c2cc(-c3ccc(-c4ccc(O)cc4)cc3)ccc2-c2ccc(-c3ccc(-c4ccc(O)cc4)cc3)cc21` is higher in melting point: 161 °C for the first, over 300 °C for the second.

First: Cc1oc(-c2ccco2)nc1COc1ccc(C=O)cc1Br
Second: CSCCOc1ccc(-c2coc3ccc(-c4nnc(C)o4)cc23)cc1
The melting point of the first is higher: 146 to 147 °C for the first, 89 to 90 °C for the second.

First: COc1cc([N+](=O)[O-])ccc1-c1cncs1
Second: N#Cc1cnc2c(sc3ccc([N+](=O)[O-])cc32)c1Nc1cccc(Br)c1
The melting point of the first is lower: 125 to 128 °C for the first, over 300 °C for the second.

First: CCCn1c(=O)c2[nH]c(/C=C/c3cc(OC)cc(OC)c3)nc2n(CCC)c1=O
Second: COc1ccc2c(c1)C(=O)N(c1ccc3c(ccn3C(C)C)c1)C2
The melting point of the first is higher: 249 to 250 °C for the first, 144 to 148 °C for the second.

Compared with `CCOC(=O)C(C)(C)N1COC(C)=C(I)C1=O`, `CC(C)C(NC(=O)Cn1c(-c2ccc(F)cc2)ncc(N)c1=O)C(=O)C(F)(F)F` (centres undefined) is higher in melting point: 85 to 87 °C for the first, 200 to 203 °C for the second.

Compared with `Cc1ccc2c(c1)c1cc(-c3ccc(Cl)cc3Cl)c(=O)n(C)c1n2CCOC1CCCCO1` (centres undefined), `COC(=O)C(Cc1ccc(Cl)cc1Cl)c1ccccc1Cl` (centres undefined) is lower in melting point: 161 °C for the first, 67.9 °C for the second.

Compared with `CCOC(=O)C(=CNc1ccc([N+](=O)[O-])cc1O)C(=O)c1cc(F)c(F)c(F)c1F`, `COC(=O)CSc1ncnc(N2CCc3ccccc3CC2)c1[N+](=O)[O-]` is lower in melting point: 225 °C for the first, 113 to 115 °C for the second.

Compared with `Nc1ncnc2c1ncn2OCC(O)CCP(=O)(O)O` (centres undefined), `NCCSc1ncccc1C(N)=O` is lower in melting point: 265 to 267 °C for the first, 131 to 133 °C for the second.

Compared with `CCc1csc2[nH]c(=O)c(=O)[nH]c12`, `COC1=C(c2ccccc2CSc2nc3ccccc3s2)C(=O)OC1` is lower in melting point: over 300 °C for the first, 81 to 82 °C for the second.

Compared with `O=C(CCCl)N1Cc2cccc3[nH]cc(c23)C1`, `CNC(=O)NCCN1CCC(=C2c3ccccc3CCn3ccnc32)CC1` is higher in melting point: 158 to 161 °C for the first, 178 °C for the second.

Compared with `O=C(CSc1cccs1)C12CC3CC(CC(C3)C1)C2`, `CCN1CCC(c2cccc(C(F)(F)F)c2)(C(C)(C)O)CC1` is higher in melting point: 69 to 72 °C for the first, 110 °C for the second.

First: C[C@H]1C(=O)C[C@@H]2C[C@H]1OO[C@]2(C)/C=C\c1ccc(C(F)(F)F)cc1C(F)(F)F
Second: CC1=CC(OC(=O)c2ccccc2)C(O)C(C)(C)CC1=O (centres undefined)
The melting point of the first is higher: 124 °C for the first, 91 to 92 °C for the second.

Compared with `CCCCCCCCCCCCCCC(CCCCC(=O)O)CCCCC(=O)O`, `CCCCCCCCCCCCCCOc1ccc(CC(=O)Nc2ccc(-n3ccnc3C)cc2)cc1` is higher in melting point: 48 to 50 °C for the first, 106 to 109 °C for the second.

First: CC(C)(C)c1ccc(-c2ccc(C(=O)N=[N+]=[N-])s2)cc1
Second: Cc1sc(-c2ccccc2)nc1CCC(=O)c1ccc(CC2SC(=O)NC2=O)s1 (centres undefined)
The melting point of the first is lower: 162 to 164 °C for the first, 164 to 166 °C for the second.

Compared with `Nc1ccc(S(=O)(=O)Nc2cc(Br)nc(Br)c2)cc1`, `Cc1cccc(NC(=O)NCC(=O)N(CC(=O)OC2(C)CCCCC2)c2ccccc2)c1` is lower in melting point: 220 to 222 °C for the first, 192 °C for the second.

With `O=C(O)CCc1cnoc1-c1ccccc1` the melting point was 90 to 91 °C.
